Measured values reported in US20050250726A1, “Immunostimulatory nucleic acid for treatment of non-allergic inflammatory diseases” (University of Iowa Research Foundation, priority 2001, published 2005).
Strand notation (5' to 3'): a small letter for the sugar, then the base; units joined by * are phosphorothioate-linked, units joined directly phosphodiester-linked; [ ] holds rarer units or linkages, { } end groups; capitals alone tell only the bases. d = 2'-deoxy (DNA)

Tests used:
[1] = system: BALB/c mouse spleen cells; assay: IFN-γ secretion from CpG DNA-stimulated spleen cells (ELISA); type: cell-based; settings: for IFN-γ: BALB/c spleen cells preincubated 30 min with SC-58236 0.125 μM, PGE2 0.1 μM, 2B5 or control antibody 6.7 μg/mL, then CpG ODN 1826 0.3 μg/mL for 24 h, supernatant ELISA
Description: Cell culture conditions. RAW 264.7 cells and murine spleen cells were cultured in RPMI 1640 supplemented with 10% FCS, 2 mM L-glutamine, 0.05 mM 2-mercaptoethanol, penicillin (100 U/ml) and streptomycin (100 U/ml) in 12-well tissue culture plates (Costar, Corning, N.Y.). Cells were incubated in media alone or media supplemented with ODN. Supernatants from triplicate cultures were harvested and stored at −70° C. before analysis for PG or cytokine concentration. Cells were subsequently harvested for either RNA or protein isolation. In some cultures, ODN-stimulated spleen cells were incubated in the presence of PGE2 (0.1 μM), piroxicam (16 μM), SC-58236 (0.125 μM), anti-PGE2 antibody 2B5 (6.7 μg/ml), or isotype antibody MOPC21 (6.7 μg/ml). For quantitative analysis of macrophage PG production, RAW 264.4 cells were cultured at 1×10^5 cells/ml in media or media with ODN (3 μg/ml). After 24 h of culture the supernatant was removed and cells were incubated in PBS supplemented with arachidonic acid (10 μM).
Cytokine quantification. IFN-γ detection was performed using a cytokine ELISA kit from PharMingen (San Diego, Calif.). Immulon-1B microtiter plates were obtained from Dynatech (Chantilly, Calif.). After incubation with peroxidase substrate (tetramethylbenzidine) the plates were read at 650 nm on a microplate reader (Cambridge Technology, Watertown, Mass.).
COX inhibitors enhance IFN-γ secretion induced by CpG DNA. CpG DNA is known to elicit strong Th1-like immune responses both in vitro and in vivo. Klinman D M et al. (1996) Proc Natl Acad Sci USA 93:2879-83. In contrast, PGE2, which is induced by CpG DNA, can inhibit Th1 responses. Betz M et al. (1991) J Immunol 146:108-13. Murine spleen cells were stimulated with CpG DNA in the presence of piroxicam, a non-selective COX inhibitor, or SC-58236, a selective inhibitor of COX-2, and quantified IFN-γ production. […] Neither COX inhibitor alone stimulated IFN-γ secretion.
Inhibition of PGE2 synthesis plays an important role in enhancing IFN-γ secretion. The blockade of the COX enzyme will inhibit synthesis of multiple PG (e.g., PGE2, PGD2 and dPGJ2), all of which potentially can inhibit Th1 immune responses. To assess the role of PGE2 in the modulation of IFN-γ secretion elicited by CpG ODN, a neutralizing antibody (2B5) specific for PGE2 was added into CpG DNA-stimulated spleen cell-cultures. […] The enhancement was similar in magnitude to that observed when COX inhibitors were added to the cultures (Table 3).

YAC-1 target cells = assay: NK cytotoxicity assay, 4-h 51Cr-release against YAC-1 target cells; type: cell-based, mouse; settings: for NK activity, Mouse Spleen Cells (LU/10^6): B cell-depleted C57BL/6 spleen cells, 18 h, IL-2 100 U/mL, ODN 1585 5 μg/mL, SC-58236 0.25 μg/mL, PGE2 0.1 μg/mL, 1 LU = 30% 51Cr release; for effect on NK lytic activity induced by CpG DNA: B cell-depleted murine spleen cells stimulated with ODN 1585
Description: Cytotoxicity assay. Spleen cells from C57BL/6 mice were depleted of B cells using paramagnetic beads coated with goat anti-mouse Ig as previously described. Ballas Z K et al. (1990) J Immunol 145:1039-45; Ballas Z K et al. (1993) J Immunol 150:17-30. […] […] Cultures were harvested at 18 h and the cells were used as effectors in a standard 4-h ^51Cr-release assay against YAC-1 target cells labeled with Na^51CrO4 (Amersham Life Science, Arlington Heights, Ill.) as described previously. Ballas Z K et al. (1990) J Immunol 145:1039-45; Ballas Z K et al. (1993) J Immunol 150:17-30; Ballas Z K et al. (1990) J Allergy Clin Immunol 85:453-39. One lytic unit (LU) was defined as the number of the cells needed to exert 30% specific lysis.
It has previously been reported that certain CpG DNA sequences can elicit strong lytic activity in NK cells (Ballas Z K et al. (1996) J Immunol 157:1840-45), whereas exogenous PGE2 is known to inhibit the activity of NK cell killing (Kanar M C et al. (1988) J Clin Immunol 8:69-79; Young M R et al. (1986) J Natl Cancer Inst 77:425-29). B cell-depleted murine spleen cells were stimulated with the stimulatory ODN 1585 in the presence or absence of a COX inhibitor.

BALB/c mice = assay: Serum IFN-γ in vivo after COX inhibitor and ODN 1826 injection; design: species or system mouse; settings: SC-58236 20 mg/kg i.p. 1 h before 30 μg ODN 1826, serum 5 h post ODN, FIG. 3
Description: In vivo experiments. BALB/c mice were injected i.p. with 0.2 ml of diluent or SC-58236 (20 mg/kg). One hour later, mice were injected with 30 μg of ODN 1826 or PBS. Five hours later, the mice were anaesthetized with Avertin (Aldrich, Milwaukee, Wis.) and blood was obtained from the retro-orbital plexus. The blood was allowed to clot on ice for 1 h and centrifuged at 10,000 r.p.m. for 10 min. The serum was used for IFN-γ determination by ELISA (as described above).
COX inhibitors augment IFN-γ production in vivo. To determine whether COX inhibitors could also enhance the immune stimulatory effects of CpG-DNA in vivo, mice were treated with COX inhibitors (piroxicam or SC-58236) and subsequently injected with stimulatory ODN 1826. Serum IFN-γ levels were quantified 5 h post ODN injection.

COX-2 mRNA = assay: RNase protection assay for COX-2 mRNA in RAW 264.7 macrophages; type: cell-based, murine; settings: ODN 3 μg/ml; for increase in COX-2 mRNA: 0-24 h
Description: RNase protection assay. A murine COX-2 cDNA fragment (nucleotides 205-505; GenBank accession no. M88242) was synthesized by RT-PCR using mouse brain RNA as a template and cloned into pGEM-4. Fragments of the RPL32-4A gene were also cloned into pGEM-4. Dudov K P et al. (1984) Cell 37:457-68. L32 served as an internal loading control. RNase protection assay (RPA) for the detection of COX-2 was performed as previously described. Stadler A et al. (1998) In: Neurodegeneration Methods and Protocols, Harry J and Tilson H A, eds., Humana Press, Totowa, N.J., p. 53. Briefly, for the synthesis of a ^32P-radiolabeled anti-sense RNA probe, equimolar mixtures of the linearized COX-2 and L32 templates were used. Hybridization reactions were performed overnight at 56° C. Following RNase digestion, the RNA duplexes were isolated by electrophoresis in a standard 7.5% acrylamide/12 M urea/0.5% TBE sequencing gel. Dried gels were placed on BMR filmhand were exposed at −70° C.
Films and photographs of RPA or Western blots were scanned in at 6000 DPI using an Epson Expression 1600 scanner. Densitometric analysis was performed using Vtrace (developed at the University of Iowa Image Analysis Facility) operating on a SGI O2 Workstation. Average and integrated OD measurements were made on user-selected regions. A Kodak photographic step tablet was used to calibrate optical density.
Immunostimulatory ODN induce COX-2 mRNA. RAW 264.7 macrophages were incubated with media or ODN (3 μg/ml) for varying time periods (0, 2, 4, 6 and 24 h) and RNA isolated for COX-2 expression using RPA.

COX-2 protein = assay: Western blotting of COX-2 protein in RAW 264.7 cells; type: cell-based, murine
Description: Western blotting. Protein was isolated from cultured cells by resuspending in lysis buffer [50 mM Tris (hydroxymethyl) aminomethane, pH 7.5, 150 mM NaCl, 100 μg/ml PMSF, 1 μg/ml aprotinin, 1 μg/ml leupeptin, 1 mM diethyldithiocarbamic acid, 1% NP-40 and 1% sodium deoxycholate]. Cells were lysed by sonication (20 s, 4° C.). Debris was eliminated by centrifugation (15 min, 1000 g). Protein concentration was measured using a commercial reagent based on BCA staining (Pierce, Rockford, Ill.), using BSA as an internal standard. Equal amounts of cellular protein were loaded onto a 10% polyacrylamide gel and separated by electrophoresis (200 V for 45 min). Proteins were then transferred to nitrocellulose (100 V for 1 h) and the membrane was blocked with 5% non-fat dry milk. The nitrocellulose was then incubated with a rabbit polyclonal primary antibody (anti-COX-2, 1:1000, Cayman; anti-COX-1, 1:1000, Santa Cruz) overnight at 4° C. Antibody labeling was detected using enhanced chemiluminescence (ECL; Amersham) as per the manufacturer's instructions. Specificity of the anti-cyclooxygenase antibody was confirmed with the use of ram seminal vesicle PGHS-1 (COX-1, Oxford Biomedical Research, Oxford, Mich.) and sheep placenta PGHS-2 (COX-2, Cayman).
Films and photographs of RPA or Western blots were scanned in at 6000 DPI using an Epson Expression 1600 scanner. […]

| Compound | IFN-γ [1] [pg/mL] | NK activity, Mouse Spleen Cells (LU/10^6) (YAC-1 target cells) | effect on NK lytic activity induced by CpG DNA (YAC-1 target cells) | increase in COX-2 mRNA (COX-2 mRNA) | COX-2 protein induction (COX-2 protein) | further results |
| --- | --- | --- | --- | --- | --- | --- |
| CCCCC[C@H](O)/C=C/[C@H]1[C@H](O)CC(=O)[C@@H]1C/C=C\CCCC(=O)O [PGE2, prostaglandin E2] | 0 ± 4 | 0.0 | abolished the lytic activity |  |  |  |
| NS(=O)(=O)c1ccc(-n2nc(C(F)(F)F)cc2-c2ccc(Cl)cc2)cc1 [SC-58236] | 0 ± 2 | 0.0 | enhanced the NK activity |  |  | enhancement of IFN-γ secretion from CpG DNA-stimulated spleen cells ([1]; inhibitor added to CpG DNA-stimulated murine spleen cells): 2 fold; increase in serum IFN-γ above mice injected with ODN 1826 alone (BALB/c mice): 4.6 fold |
| ODN 1826 | 1960 ± 247 |  |  | effectively increased COX-2 mRNA | marked induction | COX-2 mRNA levels over the 24-h time period (COX-2 mRNA): remained elevated; time to induction of COX-2 mRNA expression (COX-2 mRNA): ≤ 2 h; COX-2 mRNA, 6 h level fold greater than 0 h (COX-2 mRNA; 6 h): 21 fold |
| ODN 1982: non-stimulatory control ODN (dT*dC*dC*dA*dG*dG*dA*dC*dT*dT*dC*dT*dC*dT*dC*dA*dG*dG*dT*dT) |  |  |  | no significant increase | no induction |  |
| ggGGTCAACGTTGAgggggG (dG*dG*dGdGdTdCdAdAdCdGdTdTdGdAdG*dG*dG*dG*dG*dG) [ODN 1585, immunostimulatory CpG ODN] |  | 7.3 |  |  |  |  |
